Results: paper PMC7604414, “Favipiravir at high doses has potent antiviral activity in SARS-CoV-2−infected hamsters, whereas hydroxychloroquine lacks activity” (Proceedings of the National Academy of Sciences of the …, 2020)

Tests used:
SARS-CoV-2 [1] = tested on: SARS-CoV-2; design: species or system Syrian hamsters; details: hamster, in vivo
SARS-CoV-2 [2] = tested on: SARS-CoV-2; design: method as in PMID 33741945; details: upon favipiravir treatment; cited from earlier work

NC(=O)c1nc(F)c[nH]c1=O [favipiravir]
increase in mean virus variants vs untreated hamsters (SARS-CoV-2 [1]): 3.2 fold | increase of mean number of mutations in the viral RNA, factor (SARS-CoV-2 [2]): more than three
